Reference: patent publication US8486965B2, “Pyrrolo[2,3-b]pyridine derivative and use thereof for treatment of cancer” (Takeda Pharmaceutical Company Limited, priority 2009, dated 2013)

Test system: Hedgehog signal transduction system (Smo)
Test: Gli reporter luciferase assay in NIH-3T3/Gli reporter cells stimulated with mouse Shh-N end fragment
Format: cell-based
Details: NIH3T3; 1 μM compound; NIH-3T3/Gli reporter cells with mouse Shh-N end fragment culture supernatant, 48 hr; luciferase activity, control without compound as 100; read-out: inhibition rate (%) at 1 μM
From the text: Inhibition of the Hedgehog signal transduction system can be measured, for example, by quantifying a decrease in the expression level of a reporter gene connected to the downstream of the Gli binding site based on the fluorescence intensity according to the following Experimental Example 1. Alternatively, it can be measured by quantifying the expression of Gli-1 mRNA in a cell extract by quantitative PCR method and the like. A compound that inhibits Hedgehog signal targets Smo, which can be confirmed, for example, by binding fluorescence-labeled Cyclopamine and a test compound to cells expressing Smo, measuring the fluorescence level of the cell, and comparing the value with that without addition of a test compound to find a decrease.
Gli reporter plasmid was constructed by inserting 8×Gli-binding site and chicken δ-crystalline promoter into the upstream of luc+ of pGL3 (Promega).
prepared in reference to the base sequence described in GenBank accession No.; X02187, and chicken genome DNA (Clontech) as a template. PCR reaction was performed using Pfu Turbo (Stratagene) and following the attached protocol. The obtained 108 bp fragment was digested with restriction enzymes BglII and HindIII, and inserted into BglII-HindIII site of pGL3 to give plasmid pGL3/δ-cry promoter.
As 8× Gli-binding site, a sequence containing eight 9-bp Gli bound consensus sequences (GACCACCCA) described in Yoon et al., J. Biol. Chem., vol. 273, pages 3496-3501 (1998) was prepared from synthetic DNA. That is, two synthetic DNAs,
were heat treated at 95° C. for 2 minutes, and incubated at 37° C. for 1 hr for annealing to give a double stranded DNA of the above-mentioned two synthetic DNAs. The obtained double stranded DNA was digested with restriction enzymes BglII and KpnI, and the obtained DNA fragment was inserted into BglII-KpnI site of pGL3/δ-cry promoter to construct plasmid pGL3/δ-cry promoter, 8× Gli binding site, i.e., Gli reporter plasmid. 2. Construction of Plasmid for Expression of Mouse Shh-N End Fragment
As a material for construction of plasmid for Shh-N end fragment expression, mouse Shh cDNA was cloned at first.
The mouse Shh cDNA was cloned by Nested PCR method using mouse 11-day fetus cDNA (Clontech) as a template. The primer sequence was prepared in reference to the base sequence described in GenBank accession No.; NM_009170.
Using the mouse Shh cDNA sequence obtained as mentioned above as a template, a partial cDNA sequence wherein stop codon (TGA) was added to 3′-terminal of cDNA sequence encoding 1st to 198th amino acid sequence of mouse Shh was obtained by PCR method. As the primer set,
In the manner mentioned above, a plasmid for mouse Shh-N end fragment expression, pcDNA3.1/mShh-N, was constructed.
HEK293 cells were grown in D-MEM medium (Invitrogen) containing 10% fetal bovine serum in a 10 cm dish and pcDNA3.1/mShh-N was introduced into the cells using FuGENE6 (Roche Applied Science). Thereafter, the HEK293 cells were cultured in a carbon dioxide gas incubator at 37° C. for 24 hours, and the medium was exchanged with D-MEM medium (Invitrogen) containing 2% fetal bovine serum. After culturing for 48 hr, culture supernatant containing recombinant type mouse Shh-N end fragment was obtained by filtration using a filter ([…]).
Using D-MEM (Invitrogen) containing 10% fetal bovine serum, expression plasmid pcDNA3:1 and Gli reporter plasmid (pGL3/δ-cry promoter, 8× Gli binding site) produced by the method of Experimental Example 1 were introduced into NIH-3T3 cells grown in a 10 cm dish by the use of FuGENE6 (Roche Applied Science).
After culture for 24 hr, the cells were recovered, suspended in D-MEM medium containing 10% fetal bovine serum and supplemented with Geneticin (Life Technologies Oriental, Inc.) to a final concentration of 500 μg/ml, diluted to 10^4 cells/ml, plated on a 96 well plate, and cultured in a carbon dioxide gas incubator at 37° C. to give Geneticin resistant transformed cell line. […]

CCc1nc2c(cc1NC(=O)c1ccccc1)c(OC(C)C)c(C(=O)N[C@H]1CC[C@@H](O)CC1)n2C [Example 173, 6-ethyl-N-(cis-4-hydroxycyclohexyl)-1-methyl-3-(1-methylethoxy)-5-[(phenylcarbonyl)amino]-1H-pyrrolo[2,3-b]pyridine-2-carboxamide]
inhibition at 1 µM: 98%

CCc1nc2c(nc1-c1ccccc1)c(OCC(F)(F)F)c(C(=O)NC1CCN(C(=O)CO)CC1)n2C [Example 144, 3-ethyl-N-[1-(hydroxyacetyl)piperidin-4-yl]-5-methyl-2-phenyl-7-(2,2,2-trifluoroethoxy)-5H-pyrrolo[2,3-b]pyrazine-6-carboxamide]
inhibition at 1 µM: 98%

CCOc1c(C(=O)NC2CCN(C(=O)CO)CC2)n(C)c2nc(CC)c(NC(=O)c3ccc(F)cc3)cc12 [Example 39, 3-ethoxy-6-ethyl-5-{[(4-fluorophenyl)carbonyl]amino}-N-[1-(hydroxyacetyl)piperidin-4-yl]-1-methyl-1H-pyrrolo[2,3-b]pyridine-2-carboxamide]
inhibition at 1 µM: 96%

CCc1nc2c(cc1NC(=O)c1ccsc1)c(OC(C)C)c(C(=O)NC1CCN(C(=O)CO)CC1)n2C [Example 61, 6-ethyl-N-[1-(hydroxyacetyl)piperidin-4-yl]-1-methyl-3-(1-methylethoxy)-5-[(thiophen-3-ylcarbonyl)amino]-1H-pyrrolo[2,3-b]pyridine-2-carboxamide]
inhibition at 1 µM: 98%

Cc1nc2c(cc1NC(=O)c1ccccc1)c(OC(C)C)c(C(=O)NC1CCN(C(=O)CO)CC1)n2C [Example 155, N-[1-(hydroxyacetyl)piperidin-4-yl]-1,6-dimethyl-3-(1-methylethoxy)-5-[(phenylcarbonyl)amino]-1H-pyrrolo[2,3-b]pyridine-2-carboxamide]
inhibition at 1 µM: 99%

CCc1cc2c(cc1NC(=O)c1ccc(F)cc1)c(OC(C)C)c(C(=O)NC1CCN(C(=O)CO)CC1)n2C [Example 168, 6-ethyl-5-{[(4-fluorophenyl)carbonyl]amino}-N-[1-(hydroxyacetyl)piperidin-4-yl]-1-methyl-3-(1-methylethoxy)-1H-indole-2-carboxamide]
inhibition at 1 µM: 97%

CCc1cc2sc(C(=O)NC3CCN(C(=O)CO)CC3)c(OCC(F)(F)F)c2cc1NC(=O)c1ccsc1 [Example 150, 6-ethyl-N-[1-(hydroxyacetyl)piperidin-4-yl]-5-[(thiophen-3-ylcarbonyl)amino]-3-(2,2,2-trifluoroethoxy)-1-benzothiophene-2-carboxamide]
inhibition at 1 µM: 89%

CCc1cc2c(cc1NC(=O)c1ccccc1)c(OC(C)C)c(C(=O)NC1CCN(C(=O)CO)CC1)n2C [Example 71, 6-ethyl-N-[1-(hydroxyacetyl)piperidin-4-yl]-1-methyl-3-(1-methylethoxy)-5-[(phenylcarbonyl)amino]-1H-indole-2-carboxamide]
inhibition at 1 µM: 97%

CCc1nc2c(cc1Nc1cccc(OC)c1)c(OCC(F)(F)F)c(C(=O)NC1CCN(C(=O)CO)CC1)n2C [Example 5, 6-ethyl-N-[1-(hydroxyacetyl)piperidin-4-yl]-5-[(3-methoxyphenyl)amino]-1-methyl-3-(2,2,2-trifluoroethoxy)-1H-pyrrolo[2,3-b]pyridine-2-carboxamide]
inhibition at 1 µM: 97%

CCc1nc2c(cc1NC(=O)c1ccc(Cl)s1)c(OC(C)C)c(C(=O)NC1CCN(C(=O)CO)CC1)n2C [Example 59, 5-{[(5-chlorothiophen-2-yl)carbonyl]amino}-6-ethyl-N-[1-(hydroxyacetyl)piperidin-4-yl]-1-methyl-3-(1-methylethoxy)-1H-pyrrolo[2,3-b]pyridine-2-carboxamide]
inhibition at 1 µM: 95%

Cc1cc2sc(C(=O)NC3CCN(C(=O)CO)CC3)c(OCC(F)(F)F)c2cc1NC(=O)c1ccccc1 [Example 68, N-[1-(hydroxyacetyl)piperidin-4-yl]-6-methyl-5-[(phenylcarbonyl)amino]-3-(2,2,2-trifluoroethoxy)-1-benzothiophene-2-carboxamide]
inhibition at 1 µM: 96%

CCc1nc2c(cc1NC(=O)c1ccccc1)c(OC(C)C)c(C(=O)NCCS(=O)(=O)CCOC)n2C [Example 60, 6-ethyl-N-{2-[(2-methoxyethyl)sulfonyl]ethyl}-1-methyl-3-(1-methylethoxy)-5-[(phenylcarbonyl)amino]-1H-pyrrolo[2,3-b]pyridine-2-carboxamide]
inhibition at 1 µM: 95%

CCc1nc2c(cc1NC(=O)c1ccc(F)cc1)c(OCC(F)(F)F)c(C(=O)NC1CCN(C(=O)CO)CC1)n2C [Example 24, 6-ethyl-5-{[(4-fluorophenyl)carbonyl]amino}-N-[1-(hydroxyacetyl)piperidin-4-yl]-1-methyl-3-(2,2,2-trifluoroethoxy)-1H-pyrrolo[2,3-b]pyridine-2-carboxamide]
inhibition at 1 µM: 90%

CCc1nc2c(cc1NC(=O)c1cscc1OC)c(OC(C)C)c(C(=O)NC1CCN(C(=O)CO)CC1)n2C [Example 62, 6-ethyl-N-[1-(hydroxyacetyl)piperidin-4-yl]-5-{[(4-methoxythiophene-3-yl)carbonyl]amino}-1-methyl-3-(1-methylethoxy)-1H-pyrrolo[2,3-b]pyridine-2-carboxamide]
inhibition at 1 µM: 98%

CCOc1c(C(=O)NC2CCN(C(=O)CO)CC2)n(C)c2nc(CC)c(NC(=O)c3ccccc3)cc12 [Example 45, 3-ethoxy-6-ethyl-N-[1-(hydroxyacetyl)piperidin-4-yl]-1-methyl-5-[(phenylcarbonyl)amino]-1H-pyrrolo[2,3-b]pyridine-2-carboxamide]
inhibition at 1 µM: 98%

CCc1cc2c(nc1NC(=O)c1ccccc1)c(OC(C)C)c(C(=O)NC1CCN(C(=O)CO)CC1)n2C [Example 130, 6-ethyl-N-[1-(hydroxyacetyl)piperidin-4-yl]-1-methyl-3-(1-methylethoxy)-5-[(phenylcarbonyl)amino]-1H-pyrrolo[3,2-b]pyridine-2-carboxamide]
inhibition at 1 µM: 84%

CCc1nc2c(cc1NC(=O)c1cccs1)c(OC(C)C)c(C(=O)NC1CCN(C(=O)CO)CC1)n2C [Example 51, 6-ethyl-N-[1-(hydroxyacetyl)piperidin-4-yl]-1-methyl-3-(1-methylethoxy)-5-[(thiophen-2-ylcarbonyl)amino]-1H-pyrrolo[2,3-b]pyridine-2-carboxamide]
inhibition at 1 µM: 94%

CCc1nc2c(nc1NC(=O)c1ccccc1)c(OC(C)C)c(C(=O)NC1CCN(C(=O)CO)CC1)n2C [Example 163, 3-ethyl-N-[1-(hydroxyacetyl)piperidin-4-yl]-5-methyl-7-(1-methylethoxy)-2-[(phenylcarbonyl)amino]-5H-pyrrolo[2,3-b]pyrazine-6-carboxamide]
inhibition at 1 µM: 98%

CCc1nc2c(cc1NC(=O)c1ccc(Cl)cc1)c(OCC(F)(F)F)c(C(=O)NC1CCN(C(=O)CO)CC1)n2C [Example 32, 5-{[(4-chlorophenyl)carbonyl]amino}-6-ethyl-N-[1-(hydroxyacetyl)piperidin-4-yl]-1-methyl-3-(2,2,2-trifluoroethoxy)-1H-pyrrolo[2,3-b]pyridine-2-carboxamide]
inhibition at 1 µM: 98%

CCc1nc2c(cc1NC(=O)c1cncs1)c(OCC(F)(F)F)c(C(=O)NC1CCN(C(=O)CO)CC1)n2C [Example 53, 6-ethyl-N-[1-(hydroxyacetyl)piperidin-4-yl]-1-methyl-5-[(1,3-thiazol-5-ylcarbonyl)amino]-3-(2,2,2-trifluoroethoxy)-1H-pyrrolo[2,3-b]pyridine-2-carboxamide]
inhibition at 1 µM: 95%
